Reference: patent publication US6958358B2, “Inhibitors of cruzipain and other cysteine proteases” (Amura Therapeutics Limited, priority 2001, dated 2005)
pKi: −log10 of the molar value.

Tests used:
Human Cathepsin L = target: T1, Human Cathepsin L (Homo sapiens, UniProt P07711); experiment: Cathepsin peptidase activity assay, human cathepsin L; type: biochemical; settings: pH 6.5; Ac-Phe-Arg-AMC; 25±1° C.
T1 construct: purchased CN Biosciences
Description: (§1) Assay protocols were based on literature precedent (Table1; Barrett, A. J., Rawlings, N. D. and Woessner, J. F., 1998, Handbook of Proteolytic Enzymes, Academic Press, London and references therein) and modified as required to suit local assay protocols. Enzyme was added as required to initiate the reaction and the activity, as judged by the change in fluorescence upon conversion of substrate to product, was monitored over time. All assays were carried out at 25±1° C.
(§2) Bovine cathepsin S, human cathepsin L, human cathepsin H and human cathepsin B were obtained from CN Biosciences. Recombinant human cathepsin S, human cathepsin K and human cathepsin X were obtained from Dr. Boris Turk (Josef Stefan Institute, Ljubljana, Slovenia). Unless otherwise stated, all peptidase activity assays were carried out in 10 mM bis-tris-propane (BTP), pH 6.5 containing 1 mM […], 5 mM 2-mercaptoethanol and 1 mM CaCl2. Human cathepsin H activity assays were carried out in 10 mM BTP pH 6.5, 142 mM […], 1 mM CaCl2, 1 mM EDTA, 1 mM DTT, 0.035 mM Zwittergent 3-16. […] The rate of conversion of substrate to product was derived from the slope of the increase in fluorescence monitored continuously over time.
(§3) The apparent inhibition constant (Ki) for each compound was determined on the basis that inhibition was reversible and occurred by a pure-competitive mechanism. The Ki values were calculated, from the dependence of enzyme activity as a function of inhibitor concentration, by direct regression analysis (Prism v 3.02) using Equation 2 (Cornish-Bowden, A., 1995.). […]
(§4) In situations where the apparent dissociation constant (Ki^app) approached the enzyme concentrations, the Ki^app values were calculated using a quadratic solution in the form described by Equation 3 (Morrison, J. F. Trends Biochem. Sci., 7, 102-105, 1982; Morrison, J. F. Biochim. Biophys. Acta, 185, 269-286, 1969; Stone, S. R. and Hofsteenge, J. Biochemistry, 25, 4622-4628, 1986). […]

Cruzipain = target: T2, Cruzipain (Trypanosoma cruzi, UniProt P25779); experiment: Trypanosoma cruzi cruzipain peptidase activity assay; type: biochemical; settings: wild-type cruzipain from T. cruzi Dm28 epimastigotes; pH 6.75; 25±1° C.
T2 construct: Wild-type cruzipain, derived from Trypanosoma cruzi Dm28 epimastigotes; tissue Dr. Julio Scharfstein (Instituto de Biofisica Carlos Chagas Filho, Universidade Federal do Rio de Janeiro); host or cells: Trypanosoma cruzi Dm28 epimastigotes
Description: as §1
Wild-type cruzipain, derived from Trypanosoma cruzi Dm28 epimastigotes, was obtained from Dr. Julio Scharfstein (Instituto de Biofisica Carlos Chagas Filho, Universidade Federal do Rio de Janeiro, Rio de Janeiro, Brazil). Activity assays were carried out in 100 mM sodium phosphate, pH 6.75 containing 1 mM EDTA and 10 mM L-cysteine using […] enzyme. Ac-Phe-Arg-AMC (KM^app≈12 μM) and D-Val-Leu-Lys-AMC (KM^app≈4 μM) were used as the substrates. Routinely, Ac-FR-AMC was used at a concentration equivalent to KM^app and D-Val-Leu-Lys-AMC was used at a concentration of 25 μM. The rate of conversion of substrate to product was derived from the slope of the increase in fluorescence monitored continuously over time.
as §3, with “1995.). [formula]” for “1995.).”
as §4

Human Cathepsin K = target: T3, Human Cathepsin K (Homo sapiens, UniProt P43235); experiment: Cathepsin peptidase activity assay, human cathepsin K; type: biochemical; settings: pH 5.5; Z-Leu-Arg-AMC; 25±1° C.
T3 construct: Dr. Boris Turk (Josef Stefan Institute, Ljubljana, Slovenia), obtained from an academic laboratory, not a commercial vendor
T3 sequence (P43235 115-329): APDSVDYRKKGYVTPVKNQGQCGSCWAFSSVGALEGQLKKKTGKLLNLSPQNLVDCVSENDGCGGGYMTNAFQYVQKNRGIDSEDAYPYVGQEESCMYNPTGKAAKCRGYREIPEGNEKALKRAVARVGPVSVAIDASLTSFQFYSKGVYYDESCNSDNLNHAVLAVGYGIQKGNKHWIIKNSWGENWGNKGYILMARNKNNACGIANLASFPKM
Description: as §1, §2, §3, §4

Bovine Cathepsin S = target: T4, Bovine Cathepsin S (Bos taurus, UniProt P25326); experiment: Cathepsin peptidase activity assay, bovine cathepsin S; type: biochemical; settings: pH 6.5; boc-Val-Leu-Lys-AMC; 25±1° C.
T4 construct: purchased CN Biosciences
Description: as §1, §2, §3, §4

Trypanosoma cruzi = settings: added to Trypanosoma cruzi-infected mammalian cell cultures; cited from earlier work
[1] = test system: Trypanosoma cruzi infection; settings: cited from earlier work

T1 sequence (P07711 114-333): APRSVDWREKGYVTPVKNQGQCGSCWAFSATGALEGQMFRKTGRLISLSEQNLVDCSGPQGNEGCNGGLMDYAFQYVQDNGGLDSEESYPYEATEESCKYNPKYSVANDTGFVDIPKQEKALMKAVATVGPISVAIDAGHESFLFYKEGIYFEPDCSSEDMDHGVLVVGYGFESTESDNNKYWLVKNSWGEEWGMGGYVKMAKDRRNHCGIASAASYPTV
T4 sequence (P25326 115-331): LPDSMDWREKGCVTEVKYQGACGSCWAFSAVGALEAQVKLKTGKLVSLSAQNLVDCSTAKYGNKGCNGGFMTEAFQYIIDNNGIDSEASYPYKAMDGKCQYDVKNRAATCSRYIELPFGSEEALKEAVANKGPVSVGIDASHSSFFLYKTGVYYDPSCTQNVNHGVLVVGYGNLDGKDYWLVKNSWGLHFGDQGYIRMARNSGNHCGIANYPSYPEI
T2 sequence (P25779 123-467): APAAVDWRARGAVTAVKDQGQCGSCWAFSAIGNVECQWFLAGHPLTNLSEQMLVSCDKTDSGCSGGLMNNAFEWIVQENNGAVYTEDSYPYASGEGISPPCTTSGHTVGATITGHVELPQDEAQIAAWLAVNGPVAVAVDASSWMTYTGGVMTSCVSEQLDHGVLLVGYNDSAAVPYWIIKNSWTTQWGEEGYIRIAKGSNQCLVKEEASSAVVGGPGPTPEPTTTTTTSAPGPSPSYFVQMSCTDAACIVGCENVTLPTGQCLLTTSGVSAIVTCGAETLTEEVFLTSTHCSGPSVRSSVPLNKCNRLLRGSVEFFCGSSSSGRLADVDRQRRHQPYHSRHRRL

SMILES	pKi (Human Cathepsin L)	pKi (Cruzipain)	pKi (Human Cathepsin K)	pKi (Bovine Cathepsin S)	effect on replication and differentiation of the parasite (Trypanosoma cruzi)	cure during the acute phase of infection [1] [%]
CC(C)(C)c1ccc(C(=O)N[C@@H](Cc2ccc(O)cc2)C(=O)N[C@]23CCC[C@H]2OCC3=O)cc1 [Example 1, (3aR, 6aR) 4-tert-Butyl-N-[2-(4-hydroxyphenyl)-1S-(3-oxo-hexahydrocyclopenta[b]furan-3a-ylcarbamoyl)-ethyl]benzamide]	< 4.70	> 5.70	< 4.00	< 4.30	–	–
CC(NC(=O)C(Cc1ccccc1)NC(=O)OCc1ccccc1)C(=O)CF (stereo not drawn) [Z-Phe-Ala-FMK]	–	–	–	–	blocked replication and differentiation of the parasite	–
O=C(Cn1ccnc1[N+](=O)[O-])NCc1ccccc1 [benznidazole]	–	–	–	–	–	~60

The next lines start with results.

pKi (Human Cathepsin L)	pKi (Cruzipain)	pKi (Human Cathepsin K)	pKi (Bovine Cathepsin S)	SMILES	effect on replication and differentiation of the parasite (Trypanosoma cruzi)	cure during the acute phase of infection [1] [%]
< 5.00	< 4.70	> 5.70	< 4.60	CC(C)C[C@H](NC(=O)c1cc2ccccc2s1)C(=O)N[C@]12CCC[C@H]1OCC2=O [Example 6, (3aR, 6aR) Benzo[b]thiophene-2-carboxylic acid [3-methyl-1S-(3-oxo-hexahydrocyclopenta[b]furan-3a-ylcarbamoyl)butyl]amide]	–	–
< 4.60	< 4.30	< 4.30	> 5.70	O=C(N[C@@H](CC1CCCCC1)C(=O)N[C@]12CCC[C@H]1OCC2=O)c1ccsc1 [Example 7, (3aR, 6aR) Thiophene-3-carboxylic acid [2-cyclohexyl-1S-(3-oxo-hexahydrocyclopenta[b]furan-3a-ylcarbamoyl)ethyl]amide]	–	–
